Assay results taken from patent US20100160369A1, “S1P1 Agonists and Methods of Making And Using” (EXELIXIS, INC., priority 2008, published 2010).
pEC50: −log10 of the molar value.

target: S1P1 (Homo sapiens, UniProt P21453); test: CNG cAMP Assay (Assay 1); assay type: cell-based; design: host or cells: HEK293 cells expressing the CNG channel; settings: footnote 1: Relative EC50 was measured, read-out: Assay 1 Relative EC50
Summary of the method: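 HEK293 cells expressing CNG channel and S1P1, membrane-potential dye loaded; compounds (top 10 μM, 10-point 3-fold, 1.8% DMSO) added with 25 μM Ro 20-1724, 500 nM NECA and 10 nM S1P for 90 min. T90/T0 fluorescence (Ex 350/Em 590 nm) normalised to NECA-alone vs DMSO; EC50 fitted.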

Sequence of S1P1 (P21453 whole entry): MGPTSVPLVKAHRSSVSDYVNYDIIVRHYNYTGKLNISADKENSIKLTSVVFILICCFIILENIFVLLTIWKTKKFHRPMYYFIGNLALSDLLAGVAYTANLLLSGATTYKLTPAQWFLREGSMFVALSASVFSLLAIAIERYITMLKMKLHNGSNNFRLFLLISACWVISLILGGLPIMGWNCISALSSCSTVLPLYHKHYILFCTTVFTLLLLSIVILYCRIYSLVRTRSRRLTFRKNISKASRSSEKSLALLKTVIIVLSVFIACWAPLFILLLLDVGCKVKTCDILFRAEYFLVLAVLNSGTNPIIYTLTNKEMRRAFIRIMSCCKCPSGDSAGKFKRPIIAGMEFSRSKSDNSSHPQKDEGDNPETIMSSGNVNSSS

O=C(O)c1cc2cc(-c3noc(-c4cn5cc(C(F)(F)F)cc(Cl)c5n4)n3)ccc2[nH]1 [Example 169, 5-{5-[8-chloro-6-(trifluoromethyl)imidazo[1,2-a]pyridin-2-yl]-1,2,4-oxadiazol-3-yl}-1H-indole-2-carboxylic acid] and CC(C)(Oc1ccc(-c2noc(-c3cn4cc(C(F)(F)F)cc(Cl)c4n3)n2)c(Cl)c1)C(=O)O [Example 254, 2-[(3-chloro-4-{5-[8-chloro-6-(trifluoromethyl)imidazo[1,2-a]pyridin-2-yl]-1,2,4-oxadiazol-3-yl}phenyl)oxy]-2-methylpropanoic acid] fall in the same range of pEC50: 5.00 to 5.30 for the first, 5.00 to 5.30 for the second.

Cc1cc(C2CC2C(=O)O)c(F)cc1-c1nc(-c2cn3cc(C(F)(F)F)cc(Cl)c3n2)no1 (centres unmarked) [Example 237, 2-(4-{3-[8-chloro-6-(trifluoromethyl)imidazo[1,2-a]pyridin-2-yl]-1,2,4-oxadiazol-5-yl}-2-fluoro-5-methylphenyl)cyclopropanecarboxylic acid] showed a pEC50 of 5.00 to 5.30.

same assay, conditions: read-out: Assay 1 EC50

O=C(O)C1CC1c1ccc(-c2noc(-c3cn4cc(C(F)(F)F)cc(Cl)c4n3)n2)cc1Cl (centres unmarked) [Example 215, 2-(2-chloro-4-{5-[8-chloro-6-(trifluoromethyl)imidazo[1,2-a]pyridin-2-yl]-1,2,4-oxadiazol-3-yl}phenyl)cyclopropanecarboxylic acid] and Cc1cc(-c2noc(-c3cn4cc(C(F)(F)F)cc(Cl)c4n3)n2)ccc1C1CC1C(=O)O (centres unmarked) [Example 86, 2-(4-{5-[8-chloro-6-(trifluoromethyl)imidazo[1,2-a]pyridin-2-yl]-1,2,4-oxadiazol-3-yl}-2-methylphenyl)cyclopropanecarboxylic acid] cannot be ordered by pEC50: at least 7.00 for the first, 6.30 to 7.00 for the second.

CS(=O)(=O)Nc1ccc(-c2noc(-c3cn4cc(C(F)(F)F)cc(Cl)c4n3)n2)c(F)c1 [Example 129, N-(4-{5-[8-chloro-6-(trifluoromethyl)imidazo[1,2-a]pyridin-2-yl]-1,2,4-oxadiazol-3-yl}-3-fluorophenyl)methanesulfonamide] and CS(=O)(=O)Nc1ccc(-c2noc(-c3cn4cc(C(F)(F)F)cc(Cl)c4n3)n2)cc1F [Example 109, N-(4-{5-[8-chloro-6-(trifluoromethyl)imidazo[1,2-a]pyridin-2-yl]-1,2,4-oxadiazol-3-yl}-2-fluorophenyl)methanesulfonamide] fall in the same range of pEC50: 6.30 to 7.00 for the first, 6.30 to 7.00 for the second.

NC(=O)C(CC(=O)O)c1ccc(-c2noc(-c3cn4cc(C(F)(F)F)cc(Cl)c4n3)n2)c(Cl)c1 (centres unmarked) [Example 135, 4-amino-3-(3-chloro-4-{5-[8-chloro-6-(trifluoromethyl)imidazo[1,2-a]pyridin-2-yl]-1,2,4-oxadiazol-3-yl}phenyl)-4-oxobutanoic acid] and O=C(O)CNc1ccc(-c2noc(-c3cn4cc(C(F)(F)F)cc(Cl)c4n3)n2)c(Cl)c1 [Example 103, N-(3-chloro-4-{5-[8-chloro-6-(trifluormethyl)imidazo[1,2-a]pyridin-2-yl]-1,2,4-oxadiazol-3-yl}phenyl)glycine] fall in the same range of pEC50: 6.30 to 7.00 for the first, 6.30 to 7.00 for the second.

NCC(O)COc1ccc(-c2noc(-c3cn4cc(C(F)(F)F)cc(Cl)c4n3)n2)c(Cl)c1 (centres unmarked) [Example 223, 1-amino-3-[(3-chloro-4-{5-[8-chloro-6-(trifluoromethyl)imidazo[1,2-a]pyridin-2-yl]-1,2,4-oxadiazol-3-yl}phenyl)oxy]propan-2-ol] and NC(=O)C1CC1c1ccc(-c2noc(-c3cn4cc(C(F)(F)F)cc(Cl)c4n3)n2)c(Cl)c1 (centres unmarked) [Entry 72] cannot be ordered by pEC50: at least 7.00 for the first, at least 7.00 for the second.

Fc1cccc(-c2noc(-c3cn4cc(C(F)(F)F)cc(Cl)c4n3)n2)c1Cl [Example 157, 8-chloro-2-[3-(2-chloro-3-fluorophenyl)-1,2,4-oxadiazol-5-yl]-6-(trifluoromethyl)imidazo[1,2-a]pyridine] and Fc1ccccc1-c1nc(-c2cn3cc(C(F)(F)F)cc(Cl)c3n2)no1 [Example 230, 8-chloro-2-[5-(2-fluorophenyl)-1,2,4-oxadiazol-3-yl]-6-(trifluoromethyl)imidazo[1,2-a]pyridine] fall in the same range of pEC50: 6.30 to 7.00 for the first, 6.30 to 7.00 for the second.

CC(Cc1ccc(-c2noc(-c3cn4cc(C(F)(F)F)cc(Br)c4n3)n2)c(Cl)c1)C(=O)O (centres unmarked) [Example 189, 3-(4-{5-[8-bromo-6-(trifluoromethyl)imidazo[1,2-a]pyridin-2-yl]-1,2,4-oxadiazol-3-yl}-3-chlorophenyl)-2-methylpropanoic acid] and O=C(O)CCc1ccc(-c2noc(-c3cn4cc(C(F)(F)F)cc(Cl)c4n3)n2)c(C(F)(F)F)c1 [Entry 8] cannot be ordered by pEC50: at least 7.00 for the first, at least 7.00 for the second.

C=CS(=O)(=O)Nc1ccc(-c2noc(-c3cn4cc(C(F)(F)F)cc(Cl)c4n3)n2)c(Cl)c1 [Example 128, N-(3-chloro-4-{5-[8-chloro-6-(trifluoromethyl)imidazo[1,2-a]pyridin-2-yl]-1,2,4-oxadiazol-3-yl}phenyl)ethenesulfonamide] and Cc1cc(F)ccc1-c1noc(-c2cn3cc(C(F)(F)F)cc(Cl)c3n2)n1 [Example 152, 8-chloro-2-[3-(4-fluoro-2-methylphenyl)-1,2,4-oxadiazol-5-yl]-6-(trifluoromethyl)imidazo[1,2-a]pyridine] cannot be ordered by pEC50: 6.30 to 7.00 for the first, at least 7.00 for the second.

O=C(O)C1CC1c1ccc(-c2noc(-c3cn4cc(C(F)(F)F)cc(Cl)c4n3)n2)c(C(F)(F)F)c1 (centres unmarked) [Entry 70] and FC(F)(F)c1cc(Cl)c2nc(-c3nc(-c4ccccc4C(F)(F)F)no3)cn2c1 [Example 165, 8-chloro-6-(trifluoromethyl)-2-{3-[2-(trifluoromethyl)phenyl]-1,2,4-oxadiazol-5-yl}imidazo[1,2-a]pyridine] fall in the same range of pEC50: 6.30 to 7.00 for the first, 6.30 to 7.00 for the second.

First: Cc1c(Br)cc(Br)c2nc(-c3nc(-c4cc(F)c(CCC(=O)O)cc4Cl)no3)cn12 [Entry 62]
Second: O=C(O)Cn1ccc2c(-c3noc(-c4cn5cc(C(F)(F)F)cc(Cl)c5n4)n3)cccc21 [Example 293, (4-{5-[8-chloro-6-(trifluoromethyl)imidazo[1,2-a]pyridin-2-yl]-1,2,4-oxadiazol-3-yl}-1H-indol-1-yl)acetic acid]
The pEC50 of the first is higher: at least 7.00 for the first, 6.00 to 6.30 for the second.

First: Fc1cccc(F)c1-c1nnc(-c2cn3cc(C(F)(F)F)cc(Cl)c3n2)o1 [Entry 66]
Second: CC(CC(=O)O)c1ccc(-c2nnc(-c3cn4cc(C(F)(F)F)cc(Cl)c4n3)o2)c(Cl)c1 (centres unmarked) [Example 219, 3-(3-chloro-4-{5-[8-chloro-6-(trifluoromethyl)imidazo[1,2-a]pyridin-2-yl]-1,3,4-oxadiazol-2-yl}phenyl)butanoic acid]
The pEC50 of the first is lower: 6.00 to 6.30 for the first, at least 7.00 for the second.

With Fc1cc(-c2noc(-c3cn4cc(C(F)(F)F)cc(Cl)c4n3)n2)c(Cl)cc1OC1CCNC1 (centres unmarked) [Example 264, 8-chloro-2-{3-[2-chloro-5-fluoro-4-(pyrrolidin-3-yloxy)phenyl]-1,2,4-oxadiazol-5-yl}-6-(trifluoromethyl)imidazo[1,2-a]pyridine] the pEC50 was at least 7.00.

same assay, conditions: relative EC50 was measured (footnote 1), read-out: Assay 1 Relative EC50

Cc1cc(Br)c2nc(-c3nc(-c4ccc(NS(C)(=O)=O)cc4Cl)no3)cn2c1 [Example 125, N-{4-[5-(8-bromo-6-methylimidazo[1,2-a]pyridin-2-yl)-1,2,4-oxadiazol-3-yl]-3-chlorophenyl}methanesulfonamide] and CS(=O)(=O)Nc1ccc(-c2noc(-c3cn4cc(C#N)cc(Br)c4n3)n2)c(Cl)c1 [Example 114, N-{4-[5-(8-bromo-6-cyanoimidazo[1,2-a]pyridin-2-yl)-1,2,4-oxadiazol-3-yl]-3-chlorophenyl}methanesulfonamide] fall in the same range of pEC50: 5.30 to 6.00 for the first, 5.30 to 6.00 for the second.
